The numbers were not newly measured in patent US20160310525A1, “PREPARATION FOR PREVENTION AND/OR TREATMENT OF PERI-IMPLANTITIS” (RLS GLOBAL AB, priority 2013, published 2016), which cites them from elsewhere.

The test system of this series is biofilm on titan specimens.

On to `OCl` [sodium hypochlorite], for which the “antimicrobial effect on biofilm” value is reported as “effective”.
